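Growth conditions: 96-well plates. Treatment: test compound, 48 hours, 5 concentrations. Analysis: linear interpolation between bracketing concentrations; unreached endpoints set to highest concentration. At the GI50, growth is halved.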 Activity calls are given as the source filed them. Rule as the data show it: active = GI50 up to about 1.1 µM and inactive = higher.
Assays:
Test in all cases: NCI tumour cell line growth inhibition, 48 h
786-0 = test system: 786-0
A498 = test system: A498
A549 = test system: A549
BT-549 = test system: BT-549
CAKI-1 = test system: CAKI-1
CCRF-CEM = test system: CCRF-CEM
COLO 205 = test system: COLO 205
DU-145 = test system: DU-145
EKVX = test system: EKVX
HCT-116 = test system: HCT-116
HCT-15 = test system: HCT-15
HL-60 = test system: HL-60
HOP-62 = test system: HOP-62
HOP-92 = test system: HOP-92
HT-29 = test system: HT-29
Hs-578T = test system: Hs-578T
IGROV-1 = test system: IGROV-1
K562 = test system: K562
KM12 = test system: KM12
LOX IMVI = test system: LOX IMVI
M14 = test system: M14
MCF7 = test system: MCF7
MDA-MB-231 = test system: MDA-MB-231
MDA-MB-435 = test system: MDA-MB-435
MDA-N = test system: MDA-N
MOLT-4 = test system: MOLT-4
Malme-3M = test system: Malme-3M
NCI-H226 = test system: NCI-H226
NCI-H23 = test system: NCI-H23
NCI-H460 = test system: NCI-H460
NCI/ADR-RES = test system: NCI/ADR-RES
OVCAR-3 = test system: OVCAR-3
OVCAR-4 = test system: OVCAR-4
OVCAR-8 = test system: OVCAR-8
PC-3 = test system: PC-3
RPMI-8226 = test system: RPMI-8226
RXF 393 = test system: RXF 393
SF-268 = test system: SF-268
SF-295 = test system: SF-295
SF-539 = test system: SF-539
SK-MEL-28 = test system: SK-MEL-28
SK-OV-3 = test system: SK-OV-3
SN12C = test system: SN12C
SNB-19 = test system: SNB-19
SNB-75 = test system: SNB-75
SR = test system: SR
SW-620 = test system: SW-620
T47D = test system: T47D
TK-10 = test system: TK-10
U-251 = test system: U-251
UACC-257 = test system: UACC-257
UACC-62 = test system: UACC-62
UO-31 = test system: UO-31

SMILES: COc1ccc(C2SCC(=O)N2c2ccc(-c3ccc(-n4c(-c5ccccc5)nc5ccccc5c4=O)cc3)cc2)cc1OC (stereo not drawn)
- GI50 (786-0): 44.4 µM (inactive)
- GI50 (A498): > 100 µM (inactive)
- GI50 (A549): 27.9 µM (inactive)
- GI50 (BT-549): 18.5 µM (inactive)
- GI50 (CAKI-1): 88.5 µM (inactive)
- GI50 (CCRF-CEM): 20 µM (inactive)
- GI50 (COLO 205): 18.4 µM (inactive)
- GI50 (DU-145): 98.2 µM (inactive)
- GI50 (EKVX): 81.8 µM (inactive)
- GI50 (HCT-116): 67.8 µM (inactive)
- GI50 (HCT-15): > 100 µM
- GI50 (HL-60): 30.8 µM (inactive)
- GI50 (HOP-62): 18 µM (inactive)
- GI50 (HOP-92): > 100 µM (inactive)
- GI50 (HT-29): 45.2 µM (inactive)
- GI50 (Hs-578T): 69.5 µM (inactive)
- GI50 (IGROV-1): 37.7 µM (inactive)
- GI50 (K562): 23.3 µM (inactive)
- GI50 (KM12): 7.85 µM (inactive)
- GI50 (LOX IMVI): 17.8 µM (inactive)
- GI50 (M14): 52.7 µM (inactive)
- GI50 (MCF7): 27.7 µM (inactive)
- GI50 (MDA-MB-231): 25.8 µM (inactive)
- GI50 (MDA-MB-435): 33.3 µM (inactive)
- GI50 (MDA-N): 59.7 µM (inactive)
- GI50 (MOLT-4): 22.4 µM (inactive)
- GI50 (Malme-3M): 81.8 µM (inactive)
- GI50 (NCI-H226): 52.7 µM (inactive)
- GI50 (NCI-H23): > 100 µM (inactive)
- GI50 (NCI-H460): 32.8 µM (inactive)
- GI50 (NCI/ADR-RES): 61.2 µM (inactive)
- GI50 (OVCAR-3): 26.5 µM (inactive)
- GI50 (OVCAR-4): > 100 µM (inactive)
- GI50 (OVCAR-8): 27.5 µM (inactive)
- GI50 (PC-3): 42 µM (inactive)
- GI50 (RPMI-8226): 31.7 µM (inactive)
- GI50 (RXF 393): > 100 µM (inactive)
- GI50 (SF-268): 43.5 µM (inactive)
- GI50 (SF-295): 16.8 µM (inactive)
- GI50 (SF-539): 30.5 µM (inactive)
- GI50 (SK-MEL-28): 57 µM (inactive)
- GI50 (SK-OV-3): 40.3 µM (inactive)
- GI50 (SN12C): > 100 µM (inactive)
- GI50 (SNB-19): 84.5 µM (inactive)
- GI50 (SNB-75): 64.1 µM (inactive)
- GI50 (SR): 26.2 µM (inactive)
- GI50 (SW-620): 73.5 µM (inactive)
- GI50 (T47D): 22.4 µM (inactive)
- GI50 (TK-10): 25.2 µM (inactive)
- GI50 (U-251): 43.8 µM (inactive)
- GI50 (UACC-257): 61.5 µM (inactive)
- GI50 (UACC-62): 29.2 µM (inactive)
- GI50 (UO-31): 44.2 µM (inactive)
